According to the OligoGym collection:
Where “and” joins values, the source holds several entries; their conditions need not be identical. Equal entries are not always repeated. These antisense oligonucleotides have a phosphorothioate backbone; sugars and methylation of C are not fully specified.

Columns and labels:
Details in all cases: ASO
[1] = target: MAP2K1
[2] = target: PIK3CD
[3] = target: SMAD3
[4] = target: SMAD1
Further: test concentration or dose not given here.

Row | Sequence | remaining target (mRNA or protein) (fraction of control) [1] | remaining target (mRNA or protein) (fraction of control) [3] | also measured
1 | CTCTGTGCATGATCTTGT | 0.51 | – | –
2 | CTCTTTGTTGCTTCCCAA | 0.38 | – | –
3 | CTGACTGCACAGAGTAAT | 0.2 | – | –
4 | CTGCGTTGTTACTTCCCAGA | – | – | remaining target (mRNA or protein) (fraction of control) [2]: ≥ 1 and 0.41
5 | CTGGGAGGAGCCACTACTGC | – | – | remaining target (mRNA or protein) (fraction of control) [2]: 0.99 and 0.6
6 | CTTCCGATGTGTCTCCGT | – | 0.39 | –
7 | GAACACGCACCTCCCAAT | – | 0.4 | –
8 | GAACTCCTGGTTGTTGAA | – | ≥ 1 | –
9 | GAAGGATCTCACAAGGCT | 0.27 | – | –
10 | GAGGCACTCTGCGAAGAC | – | 0.49 | –
11 | GAGTTCTACATGAAAAGC | 0.66 | – | –
12 | GATGACAGTTGTCCTCTCTG | – | – | remaining target (mRNA or protein) (fraction of control) [2]: 0.84 and 0.46
13 | GCAGTTTTGGAGGAGGCT | 0.32 | – | –
14 | GCATCCTGCGTTGTTACTTC | – | – | remaining target (mRNA or protein) (fraction of control) [2]: 0.89 and 0.35
15 | GCCACTACTGCCTGTTGTCT | – | – | remaining target (mRNA or protein) (fraction of control) [2]: 0.59 and 0.3
16 | GCCCTGGTTGACCGACTG | – | 0.83 | –
17 | GCCTTCTCGCACCATTTC | – | 0.92 | –
18 | GCGAGGCGTGGAATGTCT | – | 0.54 | –
19 | GCGCAGCTGGCAGGGCTGGG | – | – | remaining target (mRNA or protein) (fraction of control) [2]: 0.86 and ≥ 1
20 | GCGCTGGTTACAGTTGGG | – | ≥ 1 | –
21 | GCGGCACGTCCTTGGTGGAC | – | – | remaining target (mRNA or protein) (fraction of control) [2]: 0.93 and 0.54
22 | GCGTGGCACCAACACAGG | – | ≥ 1 | –
23 | GCTTGTGGGAGACCTTGA | 0.65 | – | –

Row | Sequence | remaining target (mRNA or protein) (fraction of control) [1] | remaining target (mRNA or protein) (fraction of control) [3] | also measured
24 | GGAAGCTGAAGTCTAGCAGC | – | – | remaining target (mRNA or protein) (fraction of control) [2]: 0.84 and 0.56
25 | GGACGGGCAGGAAGGGCTGC | – | – | remaining target (mRNA or protein) (fraction of control) [2]: ≥ 1 and 0.87
26 | GGAGCCACTACTGCCTGTTG | – | – | remaining target (mRNA or protein) (fraction of control) [2]: 0.86 and 0.31
27 | GGAGGAGCCACTACTGCCTG | – | – | remaining target (mRNA or protein) (fraction of control) [2]: 0.98 and 0.55
28 | GGAGGGCGTGCGGGCGGC | – | ≥ 1 | –
29 | GGCAGATTAAAGATGCTTTA | – | – | remaining target (mRNA or protein) (fraction of control) [2]: 0.9 and 0.48
30 | GGCAGTCCACCCCAGGGGGC | – | – | remaining target (mRNA or protein) (fraction of control) [2]: 0.76 and 0.56
31 | GGCCTTTTATTACAGCAA | 0.5 | – | –
32 | GGCGTCGGCTTCTTCTTG | 0.3 | – | –
33 | GGCTGTAGTCGTCCAGTG | – | 0.65 | –
34 | GGGAAGTTAGTGTTTTCG | – | ≥ 1 | –
35 | GGGCTGGGAGGAGCCACTAC | – | – | remaining target (mRNA or protein) (fraction of control) [2]: ≥ 1
36 | GGGGCATCCTGCGTTGTTAC | – | – | remaining target (mRNA or protein) (fraction of control) [2]: ≥ 1
37 | GGGTCGGTGAAGCCATCC | – | ≥ 1 | –
38 | GGTAGGGATTCACGCAGA | – | 0.92 | –
39 | GTAATCCAACAACTCAAA | 0.79 | – | –
40 | GTACGGAGAGTTGCACTC | 0.25 | – | –
41 | GTCGGTTCTTTCCCGTTAGG | – | – | remaining target (mRNA or protein) (fraction of control) [2]: 0.52 and 0.35
42 | GTGCGGGCGGCGAGGAGC | – | 0.86 | –
43 | GTTGGTCTCCGCAGAGCT | 0.37 | – | –
44 | TAACGCGCTTCCAACTCC | 0.3 | – | –
45 | TACAACAGCATTGGTACT | 0.23 | – | –
46 | TACCAGAGACAGTCCCAT | 0.24 | – | –

Row | Sequence | remaining target (mRNA or protein) (fraction of control) [1] | remaining target (mRNA or protein) (fraction of control) [3] | also measured
47 | TCTCAGCCGCATCTCCTT | 0.13 | – | –
48 | TCTCGCTTCCTCCCTCGT | 0.74 | – | –
49 | TCTGCTTCTGGGTAAGAA | ≥ 1 | – | –
50 | TCTGGTGGTCACTGGTTT | – | 0.64 | –
51 | TCTTCTTCCTTGACAACA | – | 0.92 | –
52 | TCTTGAGTTTCTTGACCA | – | ≥ 1 | –
53 | TGAAGCCCCAGCTATCAT | 0.41 | – | –
54 | TGCAGATACTGATCTCGC | 0.29 | – | –
55 | TGCAGGTCCAAGTTATTA | – | 0.81 | –
56 | TGCATCGTGCGGGCTCTT | – | 0.43 | –
57 | TGCCCGTTCTGCTCGCCC | – | 0.63 | –
58 | TGCTCGCCCTTCTTCCAG | – | 0.61 | –
59 | TGGAATAGTCCAAGAAAGAC | – | – | remaining target (mRNA or protein) (fraction of control) [2]: ≥ 1
60 | TGGAGTCTTTCTGGCGAC | 0.44 | – | –
61 | TGGGTTGAGTAGAGTTCC | – | 0.53 | –
62 | TTAAGCCACCAGAGCAGA | – | ≥ 1 | –
63 | TTCACCAAAGCATCAACA | – | – | remaining target (mRNA or protein) (fraction of control) [4]: 0.18
64 | TTCCAGCTTTCTTCAGGA | 0.58 | – | –
65 | TTCTTCCAGCCCAGCAGG | – | ≥ 1 | –
66 | TTGGTCACAGAGGTCAAG | – | – | remaining target (mRNA or protein) (fraction of control) [4]: 0.15
67 | TTGTTTAAATTTCTGAAT | – | – | remaining target (mRNA or protein) (fraction of control) [4]: 0.5
68 | TTTACAGAGAAGTCTCTT | – | – | remaining target (mRNA or protein) (fraction of control) [4]: ≥ 1
69 | TTTGTCCTAAGTTACGGA | – | – | remaining target (mRNA or protein) (fraction of control) [4]: 0.64
